Drawing on publication PMC2864539 (Cancer research, 2010), this text covers IC50 for 1 compound.

For experiment [1], the target named is T1, human COX-2 (Homo sapiens, UniProt P35354).
T1 sequence (P35354 18-604): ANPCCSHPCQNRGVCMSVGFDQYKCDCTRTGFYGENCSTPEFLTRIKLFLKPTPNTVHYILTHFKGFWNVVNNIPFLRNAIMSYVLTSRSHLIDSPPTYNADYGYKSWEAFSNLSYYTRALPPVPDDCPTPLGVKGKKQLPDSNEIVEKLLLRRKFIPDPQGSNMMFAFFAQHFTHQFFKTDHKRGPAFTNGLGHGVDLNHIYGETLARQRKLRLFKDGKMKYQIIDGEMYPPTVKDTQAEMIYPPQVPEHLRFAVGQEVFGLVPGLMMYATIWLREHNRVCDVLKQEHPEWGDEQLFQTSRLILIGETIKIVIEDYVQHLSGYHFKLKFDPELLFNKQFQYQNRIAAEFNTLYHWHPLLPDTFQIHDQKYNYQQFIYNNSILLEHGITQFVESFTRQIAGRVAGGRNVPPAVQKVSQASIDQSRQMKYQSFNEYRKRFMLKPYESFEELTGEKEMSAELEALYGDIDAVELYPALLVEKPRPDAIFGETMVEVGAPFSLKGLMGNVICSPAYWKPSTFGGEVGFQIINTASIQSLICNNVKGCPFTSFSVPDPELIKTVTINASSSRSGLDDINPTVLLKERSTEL
The experiment can be described thus: [[…]-14C]arachidonic acid conversion, radio-TLC. The experiment is classed as biochemical.

Experiment [2] concerns the target T2, ovine COX-1 (Ovis aries, UniProt P05979).
T2 sequence (P05979 25-600): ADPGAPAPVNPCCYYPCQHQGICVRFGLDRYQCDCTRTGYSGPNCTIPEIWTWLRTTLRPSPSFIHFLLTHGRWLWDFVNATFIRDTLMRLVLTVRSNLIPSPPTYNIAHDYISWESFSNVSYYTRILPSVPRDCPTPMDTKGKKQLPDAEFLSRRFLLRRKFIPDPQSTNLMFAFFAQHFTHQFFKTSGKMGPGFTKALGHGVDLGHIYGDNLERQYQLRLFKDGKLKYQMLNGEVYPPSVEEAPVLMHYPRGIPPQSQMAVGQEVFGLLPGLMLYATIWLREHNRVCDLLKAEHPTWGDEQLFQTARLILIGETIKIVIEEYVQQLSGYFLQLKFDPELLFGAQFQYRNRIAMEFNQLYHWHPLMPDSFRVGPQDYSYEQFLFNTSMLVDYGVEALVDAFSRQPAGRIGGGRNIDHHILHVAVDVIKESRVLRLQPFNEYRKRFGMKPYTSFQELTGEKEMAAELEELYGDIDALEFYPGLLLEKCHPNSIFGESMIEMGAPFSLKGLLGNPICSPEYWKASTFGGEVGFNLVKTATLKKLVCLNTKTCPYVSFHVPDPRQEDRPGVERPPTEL
The experiment can be described thus: [[…]-14C]arachidonic acid conversion, radio-TLC. Format: biochemical.

Each structure is given as a SMILES string. A value given as a limit tells only on which side of the number the result lay.

For orientation: IC50 means the point on the concentration scale where inhibition reaches its midpoint. In the case of `COc1ccc2c(c1)c(CC(=O)NCCNC(=O)c1ccc(C(=O)[O-])c(C3=c4cc5c6c(c4Oc4c3cc3c7c4CCCN7CCC3)CCC[N+]=6CCC5)c1)c(C)n2C(=O)c1ccc(Cl)cc1` [compound 3], the results for the IC50 in experiment [1] and in experiment [2] were more than 4 µM and more than 66 µM, respectively.
